The subject of the assay is tumor that expresses high levels of CXCL12. In words: Tumor growth in mice with a subcutaneous CXCL12-expressing tumor. In kind it is in vivo. As to conditions: AMD3100 subcutaneous once a day for 5 days, then NK-92 cells intraperitoneal one to three days after the final dose, contemplated synergistic effect. On the procedure:
Mice are injected with tumor cells (subcutaneous injection) from a tumor that expresses high levels of CXCL12 and a tumor allowed to develop. Once the tumor has formed, the mice are injected (subcutaneous in the same flank as the tumor) with AMD3100 or vehicle, once a day for 5 days.
One to three days after the final dose of AMD3100, mice are injected via intraperitoneal injection with NK-92 cells or vehicle 18 hours prior to assay of tumor growth. Tumor growth in mice is delayed by NK-92 cell treatment, but resumes soon after the treatment is discontinued in mice that were not administered AMD3100.

On to `c1cc(CN2CCCNCCNCCCNCC2)ccc1CN1CCCNCCNCCCNCC1` [AMD3100], for which the “Delay in tumor growth (co-treatment)” value was “longer than NK-92 cells alone”.

These data come from patent US20180117006A1, “ANTI-FUGETACTIC AGENT AND IMMUNOTHERAPY AGENT COMBINATION THERAPY AND COMPOSITIONS FOR THE TREATMENT OF CANCER” (THE GENERAL HOSPITAL CORPORATION, priority 2015, published 2018).
